US10538555B2, “Macrocyclic inhibitors of the PD-1/PD-L1 and CD80(B7-1)/PD-L1 protein/protein interactions” (BRISTOL-MYERS SQUIBB COMPANY, priority 2014, dated 2020)
*1 amine or outer side, *2 acyl side, *3 side chain or, on linkers, in order; H or OH if unused. Where a SMILES comes first, the peptide text is derived from it. Bridges are numbered along the chain shown (N, C = ends). [ ]: non-standard residue; d: D form. Trp(1-CH2COOH) = N[C@@H](Cc1cn(CC(=O)O)c2ccccc12)C(=O)O; Phe(3,4,5-F3) = N[C@@H](Cc1cc(F)c(F)c(F)c1)C(=O)O; Phe(3,4-F2) = N[C@@H](Cc1ccc(F)c(F)c1)C(=O)O; Morpholine(3S-CO) = O=C(O)[C@@H]1COCCN1; Phe(4-F) = N[C@@H](Cc1ccc(F)cc1)C(=O)O; Pro(4R-Me) = C[C@H]1CN[C@H](C(=O)O)C1; d(cisHyp) = O=C(O)[C@H]1C[C@@H](O)CN1; Bta = N[C@@H](Cc1csc2ccccc12)C(=O)O; Hyp = O=C(O)[C@@H]1C[C@@H](O)CN1; NMeF = CN[C@@H](Cc1ccccc1)C(=O)O; X1 = O=C([C@H]1COCCN1[*:1])[*:2]; NMeE = CN[C@@H](CCC(=O)O)C(=O)O; dHyp = O=C(O)[C@H]1C[C@H](O)CN1; NMeL = CN[C@@H](CC(C)C)C(=O)O; NMeNle = CCCC[C@H](NC)C(=O)O; Pip = O=C(O)[C@@H]1CCCCN1; dPip = O=C(O)[C@H]1CCCCN1; hSer = N[C@@H](CCO)C(=O)O; NMeA = CN[C@@H](C)C(=O)O; Orn = NCCC[C@H](N)C(=O)O; dThz = O=C(O)[C@H]1CSCN1; Dab = NCC[C@H](N)C(=O)O; Dap = NC[C@H](N)C(=O)O; Sar = CNCC(=O)O

Biological target: T1, Human PD-L1/PD-1 (Homo sapiens, UniProt Q9NZQ7)
T1 construct: TVMV protease cleavage site (C); made in house; host or cells: HEK293T cells
T1 sequence (Q9NZQ7 with tags, fused parts or gaps): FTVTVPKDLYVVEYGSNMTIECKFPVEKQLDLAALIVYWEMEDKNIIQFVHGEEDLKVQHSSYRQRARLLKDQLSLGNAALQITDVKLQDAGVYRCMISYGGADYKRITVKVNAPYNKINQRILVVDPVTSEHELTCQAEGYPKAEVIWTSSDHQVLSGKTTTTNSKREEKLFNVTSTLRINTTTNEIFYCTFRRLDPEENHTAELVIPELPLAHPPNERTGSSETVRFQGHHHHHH
Assay: HTRF Human PD-L1/PD-1 binding assay (PD-1-Ig/PD-L1-His)
Settings: PD-L1-His 10 nM, PD-1-Ig 20 nM; class symbol; read-out: HTRF Human PD-L1/PD-1 Binding Assay IC50 Range
Outline: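 Inhibitors were preincubated 15 min with human PD-L1(18-239)-His (10 nM final), then PD-1(25-167)-Ig (20 nM final) was added for 15 min in dPBS/0.1% BSA/0.05% Tween-20. Eu-cryptate anti-Ig (1 nM) and APC anti-His (20 nM) were added; 665/620 nm ratio read after 30 min.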

SMILES | IC50 [nM]
CCCC[C@H]1C(=O)N(C)[C@@H](CCCC)C(=O)N[C@@H](CC(C)C)C(=O)N[C@H](C(=O)NCC(N)=O)CSCC(=O)N[C@@H](Cc2ccc(O)cc2)C(=O)N(C)[C@@H](C)C(=O)N[C@@H](CC(N)=O)C(=O)N2CCC[C@H]2C(=O)N[C@H](C)C(=O)N[C@@H](CCC(=O)O)C(=O)N2C[C@H](O)C[C@H]2C(=O)N[C@@H](Cc2c[nH]c3ccccc23)C(=O)N[C@@H](CCN)C(=O)N[C@@H](Cc2csc3ccccc23)C(=O)N1C [Example 5248] ({CH2CO}-Y[NMeA]NP[dA]E[Hyp]W[Dab][Bta][NMeNle][NMeNle]LCG-NH2; thioether N-14) | 1 to 9.9
CCCC[C@H]1C(=O)N(C)[C@@H](CCCC)C(=O)N[C@@H](CCCNC(=N)N)C(=O)N[C@H](C(=O)NCC(N)=O)CSCC(=O)N[C@@H](Cc2ccc(O)cc2)C(=O)N(C)[C@@H](C)C(=O)N[C@@H](CC(N)=O)C(=O)N2CCC[C@H]2C(=O)N[C@@H](Cc2cnc[nH]2)C(=O)N[C@@H](CCCCN)C(=O)N2C[C@H](O)C[C@H]2C(=O)N[C@@H](Cc2c[nH]c3ccccc23)C(=O)N[C@@H](CO)C(=O)N[C@@H](Cc2cn(CC(=O)O)c3ccccc23)C(=O)N1C [Example 6338] ({CH2CO}-Y[NMeA]NPHK[Hyp]WS[Trp(1-CH2COOH)][NMeNle][NMeNle]RCG-NH2; thioether N-14) | 10 to 99.9
CCCC[C@H]1C(=O)N(C)[C@@H](CCCC)C(=O)N[C@@H](CCCN)C(=O)N[C@H](C(=O)NCC(N)=O)CSCC(=O)N[C@@H](Cc2ccc(OC)cc2)C(=O)N(C)[C@@H](C)C(=O)N[C@@H](CCN)C(=O)N2CCC[C@H]2C(=O)N[C@@H](CN)C(=O)N[C@@H](CCC(=O)O)C(=O)N2C[C@H](O)C[C@H]2C(=O)N[C@@H](Cc2c[nH]c3ccccc23)C(=O)N[C@@H](CCN)C(=O)N[C@@H](Cc2c[nH]c3ccccc23)C(=O)N1C [Example 7092] ({CH2CO}-Y(Me)[NMeA][Dab]P[Dap]E[Hyp]W[Dab]W[NMeNle][NMeNle][Orn]CG-NH2; thioether N-14) | 10 to 99.9
CCCC[C@H]1C(=O)N(C)[C@@H](CCCC)C(=O)N[C@@H](CCC(=O)O)C(=O)N[C@H](C(=O)NCC(N)=O)CSCC(=O)N[C@@H](Cc2ccc(O)cc2)C(=O)N(C)[C@@H](C)C(=O)N[C@@H](CC(N)=O)C(=O)N2CCC[C@H]2C(=O)N[C@@H](CO)C(=O)N[C@@H](CCC(=O)O)C(=O)N2C[C@H](O)C[C@H]2C(=O)N[C@@H](Cc2c[nH]c3ccccc23)C(=O)N[C@@H](CO)C(=O)N[C@@H](Cc2c[nH]c3ccccc23)C(=O)N1C [Example 5205] ({CH2CO}-Y[NMeA]NPSE[Hyp]WSW[NMeNle][NMeNle]ECG-NH2; thioether N-14) | 1 to 9.9
CCCC[C@H]1C(=O)N(C)[C@@H](CCCC)C(=O)N[C@@H](C)C(=O)N[C@H](C(=O)NCC(N)=O)CSCC(=O)N[C@@H](Cc2ccc(O)cc2)C(=O)N(C)[C@@H](C)C(=O)N[C@@H](CC(N)=O)C(=O)N2CCOC[C@H]2C(=O)N[C@@H](Cc2cnc[nH]2)C(=O)N[C@@H](CCC(N)=O)C(=O)N2C[C@H](O)C[C@H]2C(=O)N[C@@H](Cc2c[nH]c3ccccc23)C(=O)N[C@@H](CO)C(=O)N[C@@H](Cc2c[nH]c3ccccc23)C(=O)N1C [Example 1280] ({CH2CO}-Y[NMeA]N[Morpholine(3S-CO)]HQ[Hyp]WSW[NMeNle][NMeNle]ACG-NH2; thioether N-14) | 10 to 99.9
CCCC[C@H]1C(=O)N(C)[C@@H](CCCC)C(=O)N[C@@H](CN)C(=O)N[C@H](C(=O)NCC(N)=O)CSCC(=O)N[C@@H](Cc2ccc(O)cc2)C(=O)N2CCCC[C@H]2C(=O)N[C@@H](CC(N)=O)C(=O)N2CCC[C@H]2C(=O)N[C@@H](CN)C(=O)N[C@@H](CC(C)C)C(=O)N2C[C@H](C)C[C@H]2C(=O)N[C@@H](Cc2c[nH]c3ccccc23)C(=O)N[C@@H](CCN)C(=O)N[C@@H](Cc2cn(CC(=O)O)c3ccccc23)C(=O)N1C [Example 1291] ({CH2CO}-Y[Pip]NP[Dap]L[Pro(4R-Me)]W[Dab][Trp(1-CH2COOH)][NMeNle][NMeNle][Dap]CG-NH2; thioether N-14) | 1 to 9.9
CCCC[C@H]1C(=O)N(C)[C@@H](CCC(=O)O)C(=O)N[C@@H](CN)C(=O)N[C@H](C(=O)NCC(N)=O)CSCC(=O)N[C@@H](Cc2ccc(O)cc2)C(=O)N(C)[C@@H](C)C(=O)N[C@@H](CC(N)=O)C(=O)N2CCC[C@H]2C(=O)N[C@@H](Cc2c[nH]cn2)C(=O)N[C@@H](CCC(=O)O)C(=O)N2C[C@H](O)C[C@H]2C(=O)N[C@@H](Cc2c[nH]c3ccccc23)C(=O)N[C@@H](CCN)C(=O)N[C@@H](Cc2c[nH]c3ccccc23)C(=O)N1C [Example 5249] ({CH2CO}-Y[NMeA]NPHE[Hyp]W[Dab]W[NMeNle][NMeE][Dap]CG-NH2; thioether N-14) | 10 to 99.9
CCCC[C@H]1C(=O)N(C)[C@@H](CCCC)C(=O)N[C@@H](CCCN)C(=O)N[C@H](C(=O)NCC(N)=O)CSCC(=O)N[C@@H](Cc2ccc(OC)cc2)C(=O)N(C)[C@@H](C)C(=O)N[C@@H](CC(=O)O)C(=O)N2CCC[C@H]2C(=O)N[C@@H](Cc2cnc[nH]2)C(=O)N[C@@H](CCCCN)C(=O)N2C[C@H](O)C[C@H]2C(=O)N[C@@H](Cc2c[nH]c3ccccc23)C(=O)N[C@@H](CCN)C(=O)N[C@@H](Cc2c[nH]c3ccccc23)C(=O)N1C [Example 7094] ({CH2CO}-Y(Me)[NMeA]DPHK[Hyp]W[Dab]W[NMeNle][NMeNle][Orn]CG-NH2; thioether N-14) | 1 to 9.9
CCCC[C@H]1C(=O)N(C)[C@@H](CCCC)C(=O)N[C@@H](CCCN)C(=O)N[C@H](C(=O)NCC(N)=O)CSCC(=O)N[C@@H](Cc2ccc(OC)cc2)C(=O)N(C)[C@@H](C)C(=O)N[C@@H](CC(=O)O)C(=O)N2CCC[C@H]2C(=O)N[C@@H](Cc2cnc[nH]2)C(=O)N[C@@H](CCC(=O)O)C(=O)N2C[C@H](O)C[C@H]2C(=O)N[C@@H](Cc2c[nH]c3ccccc23)C(=O)N[C@@H](CCN)C(=O)N[C@@H](Cc2c[nH]c3ccccc23)C(=O)N1C [Example 7098] ({CH2CO}-Y(Me)[NMeA]DPHE[Hyp]W[Dab]W[NMeNle][NMeNle][Orn]CG-NH2; thioether N-14) | 1 to 9.9

Now from value to compound:

IC50 [nM] | SMILES
10 to 99.9 | CCCC[C@H]1C(=O)N2CCC[C@@H]2C(=O)N[C@@H](CC(=O)O)C(=O)N[C@@H](C)C(=O)N(C)[C@@H](Cc2ccccc2)C(=O)N[C@@H](Cc2ccc(O)cc2)C(=O)N(C)CC(=O)N[C@@H](Cc2c[nH]c3ccccc23)C(=O)N[C@@H](Cc2ccc(O)cc2)C(=O)N[C@@H](CC(C)C)C(=O)N[C@H](C(=O)NCC(N)=O)CSCC(=O)N[C@@H](Cc2cc(F)c(F)c(F)c2)C(=O)N(C)[C@@H](Cc2ccccc2)C(=O)N1C [Example 10053] ({CH2CO}-[Phe(3,4,5-F3)][NMeF][NMeNle][dP]DA[NMeF]Y[Sar]WYLCG-NH2; thioether N-13)
10 to 99.9 | CCCC[C@H]1C(=O)N2C[C@@H](O)C[C@@H]2C(=O)N[C@@H](CC(=O)O)C(=O)N[C@@H](C)C(=O)N(C)[C@@H](Cc2ccccc2)C(=O)N[C@@H](Cc2ccc(O)cc2)C(=O)N2C[C@@H](O)C[C@@H]2C(=O)N[C@@H](Cc2c[nH]c3ccccc23)C(=O)N[C@@H](Cc2ccc(O)cc2)C(=O)N[C@@H](CC(C)C)C(=O)N[C@H](C(=O)NCC(N)=O)CSCC(=O)N[C@@H](Cc2ccccc2)C(=O)N(C)[C@@H](Cc2ccccc2)C(=O)N1C [Example 10079] ({CH2CO}-F[NMeF][NMeNle][dHyp]DA[NMeF]Y[dHyp]WYLCG-NH2; thioether N-13)
1 to 9.9 | CCCC[C@H]1C(=O)N2C[C@H](O)C[C@@H]2C(=O)N[C@@H](CC(=O)O)C(=O)N[C@@H](C(C)C)C(=O)N(C)[C@@H](Cc2ccccc2)C(=O)N[C@@H](CCCCN)C(=O)N2C[C@H](O)C[C@@H]2C(=O)N[C@@H](Cc2c[nH]c3ccccc23)C(=O)N[C@@H](Cc2ccc(O)cc2)C(=O)N[C@@H](CC(C)C)C(=O)N[C@H](C(=O)NCC(N)=O)CSCC(=O)N[C@@H](Cc2ccc(F)c(F)c2)C(=O)N(C)[C@@H](Cc2ccccc2)C(=O)N1C [Example 9294] ({CH2CO}-[Phe(3,4-F2)][NMeF][NMeNle][d(cisHyp)]DV[NMeF]K[d(cisHyp)]WYLCG-NH2; thioether N-13)
1000 to 10000 | CCCC[C@H]1C(=O)N2CCC[C@@H]2C(=O)N[C@@H](CC(=O)O)C(=O)N[C@@H](C(C)C)C(=O)N(C)[C@@H](CC(C)C)C(=O)N[C@@H](Cc2ccc(O)cc2)C(=O)N2CCCC[C@@H]2C(=O)N[C@@H](Cc2c[nH]c3ccccc23)C(=O)N[C@@H](Cc2ccc(O)cc2)C(=O)N[C@@H](CC(C)C)C(=O)N[C@H](C(=O)NCC(N)=O)CSCC(=O)N[C@@H](Cc2ccc(F)cc2)C(=O)N(C)[C@@H](Cc2ccccc2)C(=O)N1C [Example 9250] ({CH2CO}-[Phe(4-F)][NMeF][NMeNle][dP]DV[NMeL]Y[dPip]WYLCG-NH2; thioether N-13)
10 to 99.9 | CCCC[C@H]1C(=O)N2CSC[C@@H]2C(=O)N[C@@H](CC(N)=O)C(=O)N[C@@H](C(C)C)C(=O)N(C)[C@@H](Cc2ccccc2)C(=O)N[C@@H](Cc2ccc(O)cc2)C(=O)N2CCC[C@@H]2C(=O)N[C@@H](Cc2c[nH]c3ccccc23)C(=O)N[C@@H](Cc2ccc(O)cc2)C(=O)N[C@@H](CC(C)C)C(=O)N[C@H](C(=O)NCC(N)=O)CSCC(=O)N[C@@H](Cc2ccccc2)C(=O)N(C)[C@@H](Cc2ccccc2)C(=O)N1C [Example 10073] ({CH2CO}-F[NMeF][NMeNle][dThz]NV[NMeF]Y[dP]WYLCG-NH2; thioether N-13)

Same assay, conditions: PD-L1-His 10 nM, PD-1-Ig 20 nM; read-out: HTRF Human PD-L1/PD-1 Binding Assay IC50

IC50 [nM] | SMILES
4.1 | CCCC[C@H]1C(=O)N2C[C@H](O)C[C@@H]2C(=O)N[C@@H](CC(=O)O)C(=O)N[C@@H](C(C)C)C(=O)N(C)[C@@H](Cc2ccccc2)C(=O)N[C@@H](CC(=O)O)C(=O)N2CCOC[C@@H]2C(=O)N[C@@H](Cc2c[nH]c3ccccc23)C(=O)N[C@@H](Cc2ccc(O)cc2)C(=O)N[C@@H](CCO)C(=O)N[C@H](C(=O)NCC(N)=O)CSCC(=O)N[C@@H](Cc2cc(F)c(F)c(F)c2)C(=O)N(C)[C@@H](Cc2ccccc2)C(=O)N1C [Example 10157] ({CH2CO}-[Phe(3,4,5-F3)][NMeF][NMeNle][d(cisHyp)]DV[NMeF]D[X1]WY[hSer]CG-NH2; thioether N-13)
